From patent US7879876B2, “Sulfonamide derivatives and use thereof for the modulation of metalloproteinases” (Merck Serono SA, priority 2005, dated 2011)

Columns and labels:
Format in all cases: biochemical
gelatinase A (MMP-2) = target: T1, gelatinase A (MMP-2) (Homo sapiens, UniProt P08253); assay: MMP-2 enzyme inhibition assay (coumarin-labelled peptide substrate); conditions: read-out: IC50 MMP2
T1 sequence (P08253 110-660): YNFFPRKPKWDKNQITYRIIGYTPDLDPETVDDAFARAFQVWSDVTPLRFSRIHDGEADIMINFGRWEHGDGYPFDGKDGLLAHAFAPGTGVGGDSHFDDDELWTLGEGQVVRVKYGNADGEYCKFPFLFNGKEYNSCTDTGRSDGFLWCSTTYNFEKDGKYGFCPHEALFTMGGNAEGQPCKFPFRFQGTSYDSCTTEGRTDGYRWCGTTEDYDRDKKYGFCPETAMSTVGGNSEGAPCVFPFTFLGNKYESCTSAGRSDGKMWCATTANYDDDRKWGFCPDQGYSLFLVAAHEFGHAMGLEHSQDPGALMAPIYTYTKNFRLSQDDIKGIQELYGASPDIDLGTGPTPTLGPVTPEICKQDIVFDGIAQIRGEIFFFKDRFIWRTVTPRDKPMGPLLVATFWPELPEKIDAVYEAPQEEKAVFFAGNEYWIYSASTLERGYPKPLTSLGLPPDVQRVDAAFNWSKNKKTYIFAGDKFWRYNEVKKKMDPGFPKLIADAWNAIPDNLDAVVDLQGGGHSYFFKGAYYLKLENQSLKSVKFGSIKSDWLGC
Summary of the method: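 Recombinant human MMP-2, APMA-activated if necessary, run as for the MMP-9 protocol: McaPLGLDpaAR substrate (8 μM working dilution) in 100 mM Tris-HCl pH 7.6, 100 mM NaCl, 10 mM CaCl2, 0.05% Brij 35; ten 3-fold concentrations (100 μM–5.1 nM) in duplicate, 2 h at 37° C. Fluorescence ex 320/em 405 nm, unstopped; IC50 from four-parameter fit.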

MMP-14 = MMP-14 (Homo sapiens, UniProt P50281); assay: MMP-14 enzyme inhibition assay (coumarin-labelled peptide substrate); conditions: read-out: percentage inhibition MMP14
Summary of the method: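 Recombinant human enzyme, APMA-activated if necessary, was incubated with McaPLGLDpaAR substrate and compound (10 concentrations in duplicate, 100 μM to 5.1 nM) in Tris-HCl pH 7.6 with NaCl, CaCl2 and Brij 35 for 2 h at 37 °C. Fluorescence was read at 320/405 nm, and IC50 was taken from a four-parameter fit.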

metalloelastase (MMP-12) = metalloelastase (MMP-12) (Homo sapiens, UniProt P39900); assay: MMP-12 enzyme inhibition assay (coumarin-labelled peptide substrate); conditions: read-out: IC50 MMP12
Summary of the method: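 Recombinant human MMP-12 assayed per the MMP-9 protocol: Tris-HCl pH 7.6 buffer with NaCl, CaCl2, Brij 35; McaPLGLDpaAR substrate, compounds 100 μM–5.1 nM in duplicate, 2 h at 37° C. Fluorescence read at 405 nm (320 nm excitation) without stopping; IC50 from four-parameter fit.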

Sequence of metalloelastase (MMP-12) (P39900 106-470): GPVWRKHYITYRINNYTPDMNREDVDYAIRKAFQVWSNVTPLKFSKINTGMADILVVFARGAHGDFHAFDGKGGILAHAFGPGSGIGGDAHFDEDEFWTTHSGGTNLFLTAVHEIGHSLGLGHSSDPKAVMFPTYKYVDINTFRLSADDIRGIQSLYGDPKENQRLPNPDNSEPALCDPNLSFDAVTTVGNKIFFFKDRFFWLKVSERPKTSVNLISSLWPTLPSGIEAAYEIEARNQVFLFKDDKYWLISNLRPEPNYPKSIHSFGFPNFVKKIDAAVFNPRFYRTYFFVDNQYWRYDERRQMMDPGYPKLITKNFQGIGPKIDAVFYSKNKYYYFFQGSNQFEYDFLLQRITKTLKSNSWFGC

Row | Structure (SMILES) | IC50 (gelatinase A (MMP-2)) [nM] | inhibition at 5 µM (MMP-14) [%] | IC50 (metalloelastase (MMP-12)) [nM] | inhibition at 0.1 µM (MMP-14; @ 0.1 μM) [%]
1 | O=CN(O)C(CS(=O)(=O)N1CCc2ccc(F)cc2C1)C1CCCC1 (stereo not shown) [Example 60, N-{1-cyclopentyl-2-[(7-fluoro-3,4-dihydroisoquinolin-2(1H)-yl)sulfonyl]ethyl}-N-hydroxyformamide] | 411 | 16 | 69 | 
2 | O=CN(O)C(COc1ccccc1)CS(=O)(=O)N1CCc2ccc(Cl)cc2C1 (stereo not shown) [Example 61, N-[2-[(7-chloro-3,4-dihydroisoquinolin-2(1H)-yl)sulfonyl]-1-(phenoxymethyl)ethyl]-N-hydroxyformamide] | 38 | 43 | 15 | 
3 | O=CN(O)C1(CS(=O)(=O)N2CCc3ccc(Cl)cc3C2)CCCC1 [Example 62, N-(1-{[(7-chloro-3,4-dihydroisoquinolin-2(1H)-yl)-sulfonyl]methyl}cyclopentyl)-N-hydroxyformamide] | 293 | 75 | 36 | 
4 | CCCCCC(C)(C)C(CS(=O)(=O)N1CCc2cc(C(F)(F)F)ccc2C1)N(O)C=O (stereo not shown) [Example 63, N-[2,2-dimethyl-1-({[6-(trifluoromethyl)-3,4-dihydro-isoquinolin-2(1H)-yl]sulfonyl}methyl)heptyl]-N-hydroxyformamide] | > 5000 | 9 | 88 | 
5 | O=CN(O)C(CS(=O)(=O)N1CCc2ccc(Br)cc2C1)C1CCCC1 (stereo not shown) [Example 64, N-{2-[(7-bromo-3,4-dihydroisoquinolin-2(1H)-yl)sulfonyl]-1-cyclopentylethyl}-N-hydroxyformamide] | 42 | 71 | 7.9 | 
6 | CC(C)(C)C(CS(=O)(=O)N1CCc2ccc(Cl)cc2C1)N(O)C=O (stereo not shown) [Example 65, N-(1-{[(7-chloro-3,4-dihydroisoquinolin-2(1H)-yl)sulfonyl]methyl}-2,2-dimethylpropyl)-N-hydroxyformamide] | 277 | 50 | 27 | 

Further lines, results first:

Row | IC50 (gelatinase A (MMP-2)) [nM] | inhibition at 5 µM (MMP-14) [%] | IC50 (metalloelastase (MMP-12)) [nM] | inhibition at 0.1 µM (MMP-14; @ 0.1 μM) [%] | Structure (SMILES)
7 | 221 | 99 | 9 | -30 | O=CN(O)C(CS(=O)(=O)N1CCc2ccc(-c3ccsc3)cc2C1)C1CCCC1 (stereo not shown) [Example 68, N-(1-cyclopentyl-2-{[7-(3-thienyl)-3,4-dihydroisoquinolin-2(1H)-yl]sulfonyl}ethyl)-N-hydroxyformamide]
8 | 527 | 63 | 18 |  | O=CN(O)C(CS(=O)(=O)N1CCc2ccc(-c3ccccc3)cc2C1)C1CCCC1 (stereo not shown) [Example 69, N-{1-cyclopentyl-2-[(7-phenyl-3,4-dihydroisoquinolin-2(1H)-yl)sulfonyl]ethyl}-N-hydroxyformamide]
9 | 1560 | 27 | 41 |  | O=CN(O)C(CS(=O)(=O)N1CCc2ccc(-c3cccc(O)c3)cc2C1)C1CCCC1 (stereo not shown) [Example 70, N-(1-cyclopentyl-2-{[7-(3-hydroxyphenyl)-3,4-dihydroisoquinolin-2(1H)-yl]sulfonyl}ethyl)-N-hydroxyformamide]
10 | 510 | 63 | 20 |  | O=CN(O)C(CS(=O)(=O)N1Cc2ccccc2C1)C1CC1 (stereo not shown) [Example 72, N-[1-cyclopropyl-2-(1,3-dihydro-2H-isoindol-2-ylsulfonyl)-ethyl]-N-hydroxyformamide]
11 | 187 | 40 | 45 |  | O=CN(O)C(CS(=O)(=O)N1CCc2ccc(Cl)cc2C1)C1CC1 (stereo not shown) [Example 73, N-{2-[(7-chloro-3,4-dihydroisoquinolin-2(1H)-yl)sulfonyl]-1-cyclopropylethyl}-N-hydroxyformamide]
12 | 97 | 76 | 5.2 |  | O=CN(O)C(CS(=O)(=O)N1CCc2cc(C(F)(F)F)ccc2C1)C1CC1 (stereo not shown) [Example 74, N-(1-cyclopropyl-2-{[6-(trifluoromethyl)-3,4-dihydro-isoquinolin-2(1H)-yl]sulfonyl}ethyl)-N-hydroxyformamide]
